Columns and labels:
[1] = test system: human mobilized peripheral blood CD34^+ HSCs; experiment: Fold change in CD34+ cell number (trypan blue count) 96 hours after Nucleofection; format: cell-based; settings: Nucleofection with wild type Cas9 and CCR5-U43 gRNA plasmid DNA + vehicle treatment (no UM171)
Method: (§1) Human CD34^+ HSCs cells from mobilized peripheral blood (AllCells) were thawed into StemSpan Serum-Free Expansion Medium (SFEM™, StemCell Technologies) containing 100 ng/mL each of the following cytokines: human stem cell factor (SCF), thrombopoietin (TPO), and flt-3 ligand (FL) (all from Peprotech). Cells were grown for 3 days in a humidified incubator and 5% CO2 20% O2. […] The published use of UM171 involved prolonged exposure of HSCs to the small molecule for ex vivo expansion of HSCs. In the current experiment, HSCs were exposed to UM171 for 2 hours before and 24 hours after delivery of Cas9 and gRNA plasmid DNA. This UM171 treatment protocol was based on pilot studies performed by the inventors that indicated acute pre-treatment with UM171 before lentivirus vector mediated gene delivery improved HSC viability compared to HSCs treated with vehicle (dimethylsulfoxide, DMSO, Sigma) alone. […] At 96 hours after Nucleofection™, CD34^+ cells were counted for by trypan blue exclusion and divided into 3 portions for the following analyses: a) flow cytometry analysis for assessment of viability by co-staining with 7-Aminoactinomycin-D (7-AAD) and allophycocyanin (APC)-conjugated Annexin-V antibody (ebioscience); b) flow cytometry analysis for maintenance of HSC phenotype (after co-staining with phycoerythrin (PE)-conjugated anti-human CD34 antibody and fluorescein isothicyanate (FITC)-conjugated anti-human CD90, both from BD Bioscience; c) hematopoietic colony forming cell (CFC) analysis by plating 1500 cells in semi-solid methylcellulose based Methocult medium (StemCell Technologies) that supports differentiation of erythroid and myeloid blood cell colonies from HSCs and serves as a surrogate assay to evaluate HSC multipotency and differentiation potential ex vivo; d) genomic DNA analysis for detection of editing at the CCR5 locus. […]

[2] = test system: human mobilized peripheral blood CD34^+ HSCs; experiment: Maintenance of HSC phenotype (CD34/CD90 co-staining, flow cytometry); format: cell-based; settings: Cas9 and CCR5 gRNA plasmids after pre-treatment with UM171; 96 hours
Method: Human CD34^+ HSCs cells from mobilized peripheral blood (AllCells) were thawed into StemSpan Serum-Free Expansion Medium (SFEM™, StemCell Technologies) containing 100 ng/mL each of the following cytokines: human stem cell factor (SCF), thrombopoietin (TPO), and flt-3 ligand (FL) (all from Peprotech). Cells were grown for 3 days in a humidified incubator and 5% CO2 20% O2. […] The published use of UM171 involved prolonged exposure of HSCs to the small molecule for ex vivo expansion of HSCs. In the current experiment, HSCs were exposed to UM171 for 2 hours before and 24 hours after delivery of Cas9 and gRNA plasmid DNA. This UM171 treatment protocol was based on pilot studies performed by the inventors that indicated acute pre-treatment with UM171 before lentivirus vector mediated gene delivery improved HSC viability compared to HSCs treated with vehicle (dimethylsulfoxide, DMSO, Sigma) alone. After the 2-hour pretreatment with UM171, 1 million […] HSCs were Nucleofected™ with the Amaxa™ 4D Nucleofector™ device (Lonza), Program EO100 using components of the P3 Primary Cell 4D-Nucleofector Kit™ (Lonza) according to the manufacturer's instructions. […]

[3] = test system: human mobilized peripheral blood CD34^+ HSCs; experiment: Viability by 7-AAD / Annexin-V flow cytometry 96 hours after Nucleofection; format: cell-based; settings: Nucleofected with Cas9 and CCR5 gRNA plasmids after pre-treatment with UM171; 96 hours
Method: as §1

[4] = test system: CD34^+ HSCs; experiment: Hematopoietic colony forming cell (CFC) assay in Methocult medium; format: cell-based, human; settings: Nucleofection with wild-type Cas9 and CCR5-U43 gRNA plasmid DNA + vehicle (no UM171); two weeks
Method: Human CD34^+ HSCs cells from mobilized peripheral blood (AllCells) were thawed into StemSpan Serum-Free Expansion Medium (SFEM™, StemCell Technologies) containing 100 ng/mL each of the following cytokines: human stem cell factor (SCF), thrombopoietin (TPO), and flt-3 ligand (FL) (all from Peprotech). Cells were grown for 3 days in a humidified incubator and 5% CO2 20% O2. […] The published use of UM171 involved prolonged exposure of HSCs to the small molecule for ex vivo expansion of HSCs. In the current experiment, HSCs were exposed to UM171 for 2 hours before and 24 hours after delivery of Cas9 and gRNA plasmid DNA. This UM171 treatment protocol was based on pilot studies performed by the inventors that indicated acute pre-treatment with UM171 before lentivirus vector mediated gene delivery improved HSC viability compared to HSCs treated with vehicle (dimethylsulfoxide, DMSO, Sigma) alone. After the 2-hour pretreatment with UM171, 1 million […] HSCs were Nucleofected™ with the Amaxa™ 4D Nucleofector™ device (Lonza), Program EO100 using components of the P3 Primary Cell 4D-Nucleofector Kit™ (Lonza) according to the manufacturer's instructions. Briefly, one million cells were suspended in Nucleofector™ solution and the following amounts of plasmid DNA were added to the cell suspension: 1250 ng plasmid expressing CCR5 gRNA (CCR5-U43) from the human U6 promoter and 3750 ng plasmid expressing wild-type S. pyogenes Cas 9 transcriptionally regulated by the CMV promoter. After Nucleofection™, cells were plated into Stemspan-SFEM™ supplemented with SCF, TPO, FL and 40 nM UM171. After overnight incubation, HSCs were plated in Stemspan-SFEM™ plus cytokines without UM171. At 96 hours after Nucleofection™, CD34^+ cells were counted for by trypan blue exclusion and divided into 3 portions for the following analyses: a) flow cytometry analysis for assessment of viability by co-staining with 7-Aminoactinomycin-D (7-AAD) and allophycocyanin (APC)-conjugated Annexin-V antibody (ebioscience); b) flow cytometry analysis for maintenance of HSC phenotype (after co-staining with phycoerythrin (PE)-conjugated anti-human CD34 antibody and fluorescein isothicyanate (FITC)-conjugated anti-human CD90, both from BD Bioscience; c) hematopoietic colony forming cell (CFC) analysis by plating 1500 cells in semi-solid methylcellulose based Methocult medium (StemCell Technologies) that supports differentiation of erythroid and myeloid blood cell colonies from HSCs and serves as a surrogate assay to evaluate HSC multipotency and differentiation potential ex vivo; d) genomic DNA analysis for detection of editing at the CCR5 locus. Genomic DNA was extracted from HSCs 96 hours after Nucleofection™, and CCR5 locus-specific PCR reactions were performed.
To evaluate maintenance of HSC potency and differentiation potential, two weeks after plating CD34^+ HSCs in CFC assays, hematopoietic activity was quantified based on scoring the HSC progeny by enumerating the total number of hematopoietic colony forming units (CFU) and the frequencies of specific blood cell phenotypes, including: mixed myeloid/erythroid (Granulocyte-erythroid-monocyte macrophage, CFU-GEMM), myeloid (CFU-macrophage (M), granulocyte-macrophage (CFU-GM)) and erythroid (CFU-E) colonies. CD34^+ HSCs that were Nucleofected™ after UM171 pre-treatment maintained CFC potential compared to un-Nucleofected™ HSCs (Table 12). In contrast, CD34^+ HSCs that were Nucleofected™ without UM171 pre-treatment had reduced CFC potential (lower total CFC counts and reduced numbers of mixed-phenotype colonies (CFU-GEMM) and erythroid colonies (CFU-E)) in comparison to un-Nucleofected™ CD34^+ HSCs.
Human CD34^+ HSCs cells from mobilized peripheral blood (AllCells) were thawed into StemSpan Serum-Free Expansion Medium (SFEM, StemCell Technologies) containing 100 ng/mL each of the following cytokines: human stem cell factor (SCF), thrombopoietin (TPO), and flt-3 ligand (FL) (all from Peprotech). […]

Sequence: GCUGCCGCCCAGUGGGACUU (chemistry not given here) [CCR5-U43, S. pyogenes gRNA targeting CCR5; delivered as U6-promoter plasmid with Cas9 plasmid]
- Fold change in cell number of CD34^+ cells (96 hours vs. time 0 cell number) [1]: 0.6
- co-expression of CD34 and CD90 [2]: maintained co-expression of CD34 and CD90
- viability (7-AAD^− AnnexinV^-) [3]: > 93%
- Number of colony forming units: E [4]: 18 colony forming units per 1500 CD34^+ HSCs plated
- Number of colony forming units: G [4]: 22 colony forming units per 1500 CD34^+ HSCs plated
- Number of colony forming units: GEMM [4]: 1 colony forming units per 1500 CD34^+ HSCs plated
- Number of colony forming units: GM [4]: 1 colony forming units per 1500 CD34^+ HSCs plated
- Number of colony forming units: M [4]: 6 colony forming units per 1500 CD34^+ HSCs plated
- Number of colony forming units: Total [4]: 28 colony forming units per 1500 CD34^+ HSCs plated

— patent US20180119123A1, “CRISPR/CAS-RELATED METHODS AND COMPOSITIONS FOR TREATING HIV INFECTION AND AIDS” (EDITAS MEDICINE, INC., priority 2015, published 2018)
